Results from patent publication US12703693B2, “Crystalline forms of N-{3-[(1S)-1-{[6-(3,4-dimethoxyphenyl)pyrazin-2-yl]amino}ethyl]phenyl}-5-methylpyridine-3-carboxamide and related products and methods” (GB002, INC., priority 2021, dated 2026).
Where “and” joins values, the source holds several entries; their conditions need not be identical. Identical values can stand only once. Each block holds one compound with its values, some of them ahead of it.

Key:
Format in all cases: physicochemical
[1] = Particle size distribution (PSD) of micronized / spray dried material; conditions: for Dv10 (μm) 1 / Dv50 (μm) 1 / Dv90 (μm) 1 / SPAN1 / Dv10 (μm) 2 / Dv50 (μm) 2 / Dv90 (μm) 2 / SPAN 2: wet polished (wet milled + spray dried) Compound 1 Form A; for Dv10 (μm) 1 / Dv50 (μm) 1 / Dv90 (μm) 1 / SPAN1: PSD set 1; for Dv10 (μm) 2 / Dv50 (μm) 2 / Dv90 (μm) 2 / SPAN 2: PSD set 2
Description: Crystalline Compound 1 Form A was fed into a grinding chamber tangentially by vacuum created by the venturi system using pressurized nitrogen (venturi pressure, Pvent, above grind pressure, Pgrind). Compressed nitrogen was also used for the jet nozzles in the walls of the chamber. The feed flow rate was set and controlled automatically (by a gravimetric feeder) or manually. Once inside the milling chamber particles were accelerated by a series of perimeter jets, in a spiral movement. The compressed fluid issuing from the nozzles expands from Pgrind and imparts very high rotational speeds in the chamber. The micronizing effect occurs when the slower incoming particles and the faster particles in the spiral path collide. While centrifugal force retains the larger particles at the periphery of the milling chamber, the smaller particles exit with the exhaust gas from the center of the chamber. Five 20 g trials were performed in a 1.5″ jet mill, under varying feed rates (Ffeed,JM,) and pressures; the optimal conditions were used for a sixth larger scale 50 g trial.
Aqueous suspensions of crystalline Compound 1 Form A in water (5% w/w or 10% w/w) were processed via microfluidization with a HPH18 (M-110EH-30 Microfluidics Pilot) wet milling apparatus equipped with an auxiliary processing module (200 μm) and an interaction chamber (Z-shape, 100 μm). The unit was initiated at a given pressure for the first five cycles to perform a pre-milling of the suspension, using only the auxiliary processing module (200 μm). The interaction chamber (100 μm) was then introduced and the suspension processed at a defined pressure. The temperature was controlled, using a reactor jacket, and recorded. To address clogging of the micronization chambers (observed after ~25 cycles), the pressure was increased from 25 to 60 bar.
The material isolated from the first run 1A, was dived into three (1BI, 1BII and 1BIII); runs 2A and 3A were spray dried to produce samples 2B and 3B, respectively. […] Runs 2B and 3B were additionally characterized for specific surface area (SSA). See Table 27 (runs 1BI, 1BII and 1BIII) and Table 28 (runs 2B and 3B) for conditions and product characterization. […]
Two 250 g batches of crystalline Compound 1 Form A were each suspended in water (5 L) and wet polished in a wet milling HPH18 (M-110EH-30 Microfluidics Pilot) apparatus, equipped with an auxiliary processing module (200 μm) and an interaction chamber (Z-shape, 100 μm). The unit was initiated at 50 bar for the first five cycles to perform a pre-milling of the suspension, using only the auxiliary processing module (200 μm). The interaction chamber (100 μm) was then introduced and the suspension processed at 50 bar (increased to 60 or 70 bar if the system clogged). The temperature was maintained at 18-28° C. using a reactor jacket. The Reactor agitation speed was 280 RPM (batch 1) and 390 RPM (batch 2). The first batch was micronized for 25 cycles and particle size distribution analyzed after 5, 15 and 20 cycles; the second batch was micronized for […] and particle size distribution analyzed after 15, 20, 25 and 35 cycles.
Both batches were then spray dried (separately) using a Büchi spray dryer, using an open loop system. The unit was equipped with a two-fluid nozzle: cap and orifice diameters of 1.5 and 0.7 mm, respectively operated with nitrogen. The aspirator, blowing nitrogen, was set at 100% capacity (~40 kg/h). The suspension feed flow was set to 8 ml/min, high and the drying outlet temperature to 75±1° C. […] Total yield (both batches combined) was 267 g (53%).
Two 250 g batches (250 g and 238 g; 488 g total) of crystalline Compound 1 Form A coated with ~2% L-leucine were each suspended in water (5 L) and wet polished in a wet milling HPH18 (M-110EH-30 Microfluidics Pilot) apparatus, under the same process as described in the previous example. The first batch was micronized for 25 cycles and the second for 30 cycles. […]

[2] = Product characterization of micronized / spray dried powder (XRPD, amorphous content, water content by KF, assay and related substances, SSA); conditions: for KF: water content
Description: The final spray dried product was characterized for assay and related substances, PSD, water content by KF and XRPD and the results shown in Table 43. The two sub-batches were blended to obtain the final product, with a total final yield was 137 g (68%), see Table 44.

[3] = as above
[4] = Compound 1 alone after wet milling, BATCH 01: 20 cycles/P = 50 bar, BATCH 02: 35 cycles/P = 70 bar
[5] = Compound 1 alone, spray dried, individual batch analyses, cyclone 1
[6] = Compound 1 alone, spray dried, individual batch analyses, cyclone 2
[7] = final product, Compound 1 alone, wet polished and spray dried
[8] = jet milled crystalline Compound 1 Form A, label = jet mill run
[9] = wet polished (wet milled + spray dried) Compound 1 Form A

Dv10 (μm) 1 [1]: 1.7 μm
Dv50 (μm) 1 [1]: 3.3 μm
Dv90 (μm) 1 [1]: 6.3 μm
SPAN1 [1]: 1.4
Dv10 (μm) 2 [1]: 1.3 μm
Dv50 (μm) 2 [1]: 3 μm
Dv90 (μm) 2 [1]: 6.1 μm
SPAN 2 [1]: 1.6
KF [2, 9]: 0.2 % w/w
Amorphous content [2, 9]: <10 % w/w
Assay [2, 9]: 102.0 % LC
Impurities [2, 9]: 0.9 % area
XRPD [2, 9]: Crystalline
Structure (SMILES): COc1ccc(-c2cncc(N[C@@H](C)c3cccc(NC(=O)c4cncc(C)c4)c3)n2)cc1OC [Compound 1BII]

Dv10 (μm) 1 [1]: 1.8 μm
Dv50 (μm) 1 [1]: 3.5 μm
Dv90 (μm) 1 [1]: 6.6 μm
SPAN1 [1]: 1.4
Dv10 (μm) 2 [1]: 1.5 μm
Dv50 (μm) 2 [1]: 3.3 μm
Dv90 (μm) 2 [1]: 6.7 μm
SPAN 2 [1]: 1.6
KF [2, 9]: 0.5 % w/w
Amorphous content [2, 9]: <10 % w/w
Assay [2, 9]: 98.9 % LC
Impurities [2, 9]: 1.1 % area
XRPD [2, 9]: Crystalline
Structure (SMILES): COc1ccc(-c2cncc(N[C@@H](C)c3cccc(NC(=O)c4cncc(C)c4)c3)n2)cc1OC [Compound 1BI]

Dv10 (μm) 2 [1]: 1.3 μm
Dv50 (μm) 2 [1]: 3.7 μm
Dv90 (μm) 2 [1]: 14.7 μm
SPAN 2 [1]: 3.6
Structure (SMILES): COc1ccc(-c2cncc(N[C@@H](C)c3cccc(NC(=O)c4cncc(C)c4)c3)n2)cc1OC [Compound 3B-2F]

The next lines start with the compound.

Structure (SMILES): COc1ccc(-c2cncc(N[C@@H](C)c3cccc(NC(=O)c4cncc(C)c4)c3)n2)cc1OC [BATCH 01]
Dv10 [1, 4]: 0.2 μm
Dv50 [1, 4]: 0.5 μm
Dv90 [1, 4]: 1.7 μm

Structure (SMILES): COc1ccc(-c2cncc(N[C@@H](C)c3cccc(NC(=O)c4cncc(C)c4)c3)n2)cc1OC [BATCH 02]
Dv10 [1, 4]: 0.3 μm
Dv50 [1, 4]: 0.8 μm
Dv90 [1, 4]: 3.4 μm

Structure (SMILES): COc1ccc(-c2cncc(N[C@@H](C)c3cccc(NC(=O)c4cncc(C)c4)c3)n2)cc1OC [Compound 1, N-{3-[(1S)-1-{[6-(3,4-dimethoxyphenyl)pyrazin-2-yl]amino}ethyl]phenyl}-5-methylpyridine-3-carboxamide]
Dv10 [1, 5]: 0.1 μm and 0.3 μm
Dv50 [1, 5]: 0.4 μm and 0.5 μm
Dv90 [1, 5]: 3.1 μm and 1.5 μm
SPAN [1, 5]: 7.2 and 2.1
Dv10 [1, 6]: 0.1 μm and 0.3 μm
Dv50 [1, 6]: 0.4 μm and 0.5 μm
Dv90 [1, 6]: 2.9 μm and 1.4 μm
SPAN [1, 6]: 7.9 and 2.0
Dv10 [1, 7]: 0.3 μm
Dv50 [1, 7]: 0.6 μm
Dv90 [1, 7]: 3.3 μm
SPAN [1, 7]: 4.7
Dv10 [1, 8]: 0.4 μm
Dv50 [1, 8]: 1.2 μm
Dv90 [1, 8]: 2.8 μm
SPAN [1, 8]: 2.0
Bulk density [2, 7]: 0.10 g/mL
KF (water content) [2, 7]: 0.3 % w/w
XRPD [2, 7]: Form A
Amorphous content by DSC [3, 7]: <10 % w/w
Amorphous content by DSC [3, 8]: 46 % w/w
Assay [3, 8]: 97.70 % LC
Impurities [3, 8]: 1.10 % area
Water content KF [3, 8]: 1.4 % w/w
XRPD [3, 8]: P + A
Specific Surface Area by BET ([3]; jet milled crystalline Compound 1 Form A, label = jet mill run, in m2/g (unit assumed)): 10.35

Structure (SMILES): COc1ccc(-c2cncc(N[C@@H](C)c3cccc(NC(=O)c4cncc(C)c4)c3)n2)cc1OC [Compound 1BIII]
Dv10 (μm) 1 [1]: 1.7 μm
Dv50 (μm) 1 [1]: 3.4 μm
Dv90 (μm) 1 [1]: 6.6 μm
SPAN1 [1]: 1.4
Dv10 (μm) 2 [1]: 1.4 μm
Dv50 (μm) 2 [1]: 3.1 μm
Dv90 (μm) 2 [1]: 6.6 μm
SPAN 2 [1]: 1.7
KF [2, 9]: 0.1 % w/w
Amorphous content [2, 9]: <10 % w/w
Assay [2, 9]: 99.40 % LC
Impurities [2, 9]: 1.10 % area
XRPD [2, 9]: Crystalline
